Experimental data as given in US6274715A, “Tricyclic erythromycin derivatives” (priority 1997, dated 2001).
≈ marks a conversion by molar mass, not a printed value.

Tests used:
Type in all cases: cell-based
[1] = tested on: STAPHYLOCOCCUS AUREUS ATCC 6538P; test: In vitro antibacterial activity, MIC, BHI agar dilution; conditions: S. aureus ATCC 6538P, 35-37° C., 20 to 24 hours, unit assumed
[2] = tested on: STAPHYLOCOCCUS AUREUS A5177; test: as above
[3] = tested on: STAPHYLOCOCCUS AUREUS A-5278; test: as above; conditions: S. aureus A-5278, unit assumed
[4] = tested on: STAPHYLOCOCCUS AUREUS CMX 642A; test: as above; conditions: S. aureus CMX 642A, unit assumed
[5] = tested on: STAPHYLOCOCCUS AUREUS NCTC10649M; test: as above; conditions: S. aureus NCTC10649M, unit assumed
[6] = tested on: STAPHYLOCOCCUS AUREUS CMX 553; test: as above; conditions: S. aureus CMX 553, unit assumed
[7] = tested on: STAPHYLOCOCCUS AUREUS 1775; test: as above; conditions: S. aureus 1775, unit assumed
[8] = tested on: STAPHYLOCOCCUS EPIDERMIDIS 3519; conditions: S. epidermidis 3519; BHI agar; unit assumed
EN[…] ATCC 8043 = test: In vitro antibacterial activity, MIC, BHI agar dilution; conditions: E. faecium ATCC 8043, unit assumed
Procedure, shortened: (§1)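 Agar dilution in BHI: plates inoculated with 1:100 dilutions of organisms (1:10 for Micrococcus and Streptococcus), incubated 20-24 h at 35-37° C, then inspected for the lowest inhibitory concentration against a drug-free growth control.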

M[…] ATCC 4698 = test: as above; conditions: M. luteus ATCC 4698, unit assumed
Procedure, shortened: as §1

M[…] ATCC 9341 = test: as above; conditions: M. luteus ATCC 9341, unit assumed
Procedure, shortened: as §1

STR[…] 508 = test: as above; conditions: S. agalactiae CMX 508, unit assumed
Procedure, shortened: as §1

[9] = tested on: STREPTOCOCCUS PYOGENES EES61; test: as above; conditions: S. pyogenes EES61, unit assumed
[10] = tested on: STREPTOCOCCUS PYOGENES PIU 2548; test: as above; conditions: S. pyogenes PIU 2548, unit assumed
ESCHERICHIA COLI JUHL = conditions: E. coli JUHL; BHI agar; unit assumed
ESCHERICHIA COLI SS = test: In vitro antibacterial activity, MIC, BHI agar dilution; conditions: E. coli SS, unit assumed
ESCHERICHIA COLI DC-2 = test: as above; conditions: E. coli DC-2, unit assumed
ESCHERICHIA COLI H560 = test: as above; conditions: E. coli H560, unit assumed
ESCHERICHIA COLI KNK 437 = conditions: E. coli KNK 437; BHI agar; unit assumed
[11] = tested on: ENTEROBACTER AEROGENES ATCC 13048; test: In vitro antibacterial activity, MIC, BHI agar dilution; conditions: E. aerogenes ATCC 13048, unit assumed
[12] = tested on: KLEBSIELLA PNEUMONIAE ATCC 8045; test: as above; conditions: K. pneumoniae ATCC 8045, unit assumed
[13] = tested on: PROVIDENCIA STUARTII CMX 640; conditions: P. stuartii CMX 640; BHI agar; unit assumed
[14] = tested on: PSEUDOMONAS AERUGINOSA BMH10; test: In vitro antibacterial activity, MIC, BHI agar dilution; conditions: P. aeruginosa BMH10, unit assumed
[15] = tested on: PSEUDOMONAS AERUGINOSA 5007; test: as above; conditions: P. aeruginosa 5007, unit assumed
[16] = tested on: PSEUDOMONAS AERUGINOSA K799/WT; test: as above; conditions: P. aeruginosa K799/WT, unit assumed
[17] = tested on: PSEUDOMONAS AERUGINOSA K799/61; test: as above; conditions: P. aeruginosa K799/61, unit assumed
[18] = tested on: PSEUDOMONAS AERUGINOSA DPHD-5263; test: as above; conditions: P. aeruginosa DPHD-5263, unit assumed
[19] = tested on: PSEUDOMONAS AERUGINOSA DPHD-2862; test: as above; conditions: P. aeruginosa DPHD-2862, unit assumed
CANDIDA ALBICANS CCH 442 = test: as above; conditions: C. albicans CCH 442, unit assumed
[20] = tested on: MYCOBACTERIUM SMEGMATIS ATCC 114; test: as above; conditions: M. smegmatis ATCC 114, unit assumed
[21] = tested on: STREPTOCOCCUS BOVIS A-5169; test: as above; conditions: S. bovis A-5169, unit assumed
[22] = tested on: STREPTOCOCCUS PYOGENES 930; test: as above; conditions: S. pyogenes 930, unit assumed
PSEUDOMONAS CEPACIA 296I = test: as above; conditions: P. cepacia 296I, unit assumed

Structure (SMILES)	MIC [3]	MIC [4]	MIC [6]	MIC [7]	MIC [8]	MIC (EN[…] ATCC 8043)	MIC (M[…] ATCC 4698)	MIC (M[…] ATCC 9341)	MIC (STR[…] 508)	MIC [9]	MIC [10]	MIC (ESCHERICHIA COLI JUHL)	MIC (ESCHERICHIA COLI SS)	MIC (ESCHERICHIA COLI DC-2)	MIC (ESCHERICHIA COLI H560)	MIC (ESCHERICHIA COLI KNK 437)	MIC [12]	MIC [13]	MIC [14]	MIC [15]	also measured
CC[C@H]1OC(=O)[C@H](C)[C@@H](O[C@H]2C[C@@](C)(OC)[C@@H](O)[C@H](C)O2)[C@H](C)[C@@H](O[C@@H]2O[C@H](C)C[C@H](N(C)C)[C@H]2O)[C@@H](C)C[C@@H](C)C2=NCCN3C(=O)O[C@@]1(C)[C@H]3[C@H]2C [Example 14]	> 100 µg/mL	0.2 µg/mL (≈ 0.26 µM)	0.1 µg/mL (≈ 0.13 µM)	> 100 µg/mL	0.2 µg/mL (≈ 0.26 µM)	0.05 µg/mL (≈ 0.0651 µM)	0.78 µg/mL (≈ 1.02 µM)	0.78 µg/mL (≈ 1.02 µM)	0.01 µg/mL (≈ 0.013 µM)	≤ 0.005 µg/mL	1.56 µg/mL (≈ 2.03 µM)	50 µg/mL (≈ 65.1 µM)	0.39 µg/mL (≈ 0.508 µM)	50 µg/mL (≈ 65.1 µM)	50 µg/mL (≈ 65.1 µM)	100 µg/mL (≈ 130 µM)	25 µg/mL (≈ 32.6 µM)	> 100 µg/mL	100 µg/mL (≈ 130 µM)	> 100 µg/mL	MIC [1]: 0.1 µg/mL (≈ 0.13 µM); MIC ([2]; S. aureus A5177): 6.2 µg/mL (≈ 8.07 µM); MIC [5]: 0.2 µg/mL (≈ 0.26 µM); MIC [11]: 100 µg/mL (≈ 130 µM); MIC [16]: 100 µg/mL (≈ 130 µM); MIC [17]: 3.1 µg/mL (≈ 4.04 µM); MIC [18]: > 100 µg/mL; MIC [19]: > 100 µg/mL; MIC (CANDIDA ALBICANS CCH 442): > 100 µg/mL; MIC [20]: 3.1 µg/mL (≈ 4.04 µM)
CC[C@H]1OC(=O)[C@H](C)C(=O)[C@H](C)[C@@H](O[C@@H]2O[C@H](C)C[C@H](N(C)C)[C@H]2O)[C@](C)(OC)C[C@@H](C)C2=N[C@@H]3CN(Cc4ccccc4)C[C@@H]3N3C(=O)O[C@@]1(C)[C@H]3[C@H]2C [Example 21]	> 100 µg/mL	6.2 µg/mL (≈ 8.06 µM)	0.78 µg/mL (≈ 1.01 µM)	> 100 µg/mL	0.78 µg/mL (≈ 1.01 µM)	0.2 µg/mL (≈ 0.26 µM)	3.1 µg/mL (≈ 4.03 µM)	0.78 µg/mL (≈ 1.01 µM)	0.05 µg/mL (≈ 0.065 µM)	0.01 µg/mL (≈ 0.013 µM)	0.39 µg/mL (≈ 0.507 µM)	> 100 µg/mL	1.56 µg/mL (≈ 2.03 µM)	100 µg/mL (≈ 130 µM)	50 µg/mL (≈ 65 µM)	> 100 µg/mL	> 100 µg/mL	> 100 µg/mL	100 µg/mL (≈ 130 µM)	> 100 µg/mL	MIC [1]: 0.78 µg/mL (≈ 1.01 µM); MIC ([2]; S. aureus A5177, unit assumed): 0.78 µg/mL (≈ 1.01 µM); MIC [5]: 0.78 µg/mL (≈ 1.01 µM); MIC [21]: 0.05 µg/mL (≈ 0.065 µM); MIC [22]: 100 µg/mL (≈ 130 µM); MIC [11]: > 100 µg/mL; MIC [16]: > 100 µg/mL; MIC [17]: 3.1 µg/mL (≈ 4.03 µM); MIC (PSEUDOMONAS CEPACIA 296I): > 100 µg/mL; MIC [18]: > 100 µg/mL; MIC [19]: > 100 µg/mL; MIC (CANDIDA ALBICANS CCH 442): > 100 µg/mL
CC[C@H]1OC(=O)[C@H](C)C(=O)[C@H](C)[C@@H](O[C@@H]2O[C@H](C)C[C@H](N(C)C)[C@H]2O)[C@](C)(OC)C[C@@H](C)C2=NC3CN(Cc4ccccc4)CC3N3C(=O)O[C@@]1(C)[C@H]3[C@H]2C (stereo partly shown) [Example 110]	> 100 µg/mL	0.39 µg/mL (≈ 0.507 µM)	0.2 µg/mL (≈ 0.26 µM)	> 100 µg/mL	0.2 µg/mL (≈ 0.26 µM)	0.05 µg/mL (≈ 0.065 µM)	0.78 µg/mL (≈ 1.01 µM)	0.05 µg/mL (≈ 0.065 µM)	0.02 µg/mL (≈ 0.026 µM)	0.005 µg/mL (≈ 0.0065 µM)	0.2 µg/mL (≈ 0.26 µM)	50 µg/mL (≈ 65 µM)	0.2 µg/mL (≈ 0.26 µM)	25 µg/mL (≈ 32.5 µM)	12.5 µg/mL (≈ 16.3 µM)	50 µg/mL (≈ 65 µM)	> 100 µg/mL	> 100 µg/mL	50 µg/mL (≈ 65 µM)	> 100 µg/mL	MIC ([2]; S. aureus A5177, unit assumed): 0.2 µg/mL (≈ 0.26 µM); MIC [21]: 0.02 µg/mL (≈ 0.026 µM); MIC [22]: 50 µg/mL (≈ 65 µM); MIC [16]: > 100 µg/mL; MIC [17]: 1.56 µg/mL (≈ 2.03 µM); MIC (PSEUDOMONAS CEPACIA 296I): 50 µg/mL (≈ 65 µM); MIC [18]: > 100 µg/mL; MIC [19]: > 100 µg/mL; MIC (CANDIDA ALBICANS CCH 442): > 100 µg/mL
